For series [1] the following is noted: humans; cited from earlier work.
Details of series [2]: method as in PMID 33201517, PMID 18353799. Conditions: laboratory rodents; cited from earlier work.
The target in series [3] is T1, human Na+/taurocholate cotransporting polypeptide (NTCP) (Homo sapiens, UniProt Q14973).
T1 construct: containing the human NTCP open reading frame with a C-terminal 6-His tag; expressed in transfected cells
T1 sequence (Q14973 1-349): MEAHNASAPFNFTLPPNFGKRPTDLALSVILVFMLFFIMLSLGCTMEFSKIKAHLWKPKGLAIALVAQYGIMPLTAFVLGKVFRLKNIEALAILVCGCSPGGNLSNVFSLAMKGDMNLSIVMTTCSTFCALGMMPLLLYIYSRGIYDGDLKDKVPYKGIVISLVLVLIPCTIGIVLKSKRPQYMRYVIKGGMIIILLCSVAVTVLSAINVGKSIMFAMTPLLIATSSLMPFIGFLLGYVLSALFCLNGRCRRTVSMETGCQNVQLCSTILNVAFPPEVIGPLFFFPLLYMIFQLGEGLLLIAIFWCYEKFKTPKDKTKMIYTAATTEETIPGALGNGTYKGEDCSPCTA
Nature of the series: Inhibition kinetics of NTCP-mediated taurocholate transport in NTCP-expressing HEK293 cells. It is filed as cell-based. Conditions: for type of inhibition of NTCP-mediated taurocholate uptake: inhibition kinetics, best fit. How it is done: (§1) Flp-In™-293 (HEK293) cells were purchased from Thermo Fisher Scientific (Waltham, MA, USA) and grown at 37 °C in a humidified 5% CO2 atmosphere in Dulbecco’s Modified Eagle’s Medium (DMEM) obtained from the American Type Culture Collection (ATCC, Manassas, VA, USA: 30-2002). The medium was supplemented with 10% fetal bovine serum (FBS) (Hyclone, Logan, UT, USA), and 100 U/mL penicillin, 100 μg/mL streptomycin (Thermo fisher Scientific). The pcDNA5/FRT plasmid containing the human NTCP open reading frame with a C-terminal 6-His tag was used to generate a stable NTCP-expressing cell line using hygromycin selection. A single clone was isolated using a cloning cylinder and cultivated in the above DMEM with the addition of 500 μg/mL hygromycin (Thermo Fisher Scientific). For transport experiments, cells were plated on poly-D-lysine-coated 24-well plates at 300,000 cells per well for uptake experiments after 48 h or at 200,000 cells per well for uptake experiments after 72 h. Uptake experiments and LC-MS/MS analysis were performed at the time points indicated in the figure legends as previously described.
Figure 3. Kinetics of taurocholate uptake in the absence and presence of PFOA, PFNA, and PFDA. Uptake of increasing concentrations of [^3H]-taurocholate into NTCP-expressing HEK293 cells was measured for 15 s (within the initial linear rate) at 37 °C in a sodium-containing buffer in the absence or presence of 10 and 100 μM of (A) PFOA, (B) PFDA, or (C) PFNA. After correction for protein, the results were analyzed using GraphPad Prism V9 using the “Enzyme kinetics–Inhibition” equations. […] Mean ± SD values of two independent experiments performed in triplicate are shown.

The target of a further series is T2, human NTCP (Homo sapiens, UniProt Q14973).
T2 construct: containing the human NTCP open reading frame with a C-terminal 6-His tag; expressed in transfected cells
T2 sequence (Q14973 1-349): T1 sequence (Q14973 1-349)
The series is described as follows: Sodium-dependent NTCP-mediated uptake of PFCAs into NTCP-expressing HEK293 cells (LC-MS/MS). It is filed as in vitro ADME. Conditions: for transport by NTCP (substrate, words): sodium-dependent uptake in NTCP-HEK293. The method, then: as §1
To resolve whether PFOA, PFNA, and PFDA were substrates of NTCP, we measured the transport of these compounds. […] To better characterize this transport, we wanted to perform kinetics experiments and determine the Km and Vmax values for the three compounds. Therefore, in Figure 4, we determined the initial linear rate conditions in which to perform the kinetics experiments. We evaluated the time-dependent uptake of PFOA, PFNA, and PFDA at 10 and 300 μM in NTCP-expressing HEK293 cells in sodium-containing and sodium-free buffer. While there is a time-dependent uptake of all three PFCAs, most likely due to organic anion transporters expressed in HEK293 cells, NTCP only transports its substrates in the presence of sodium. Therefore, we calculated the net sodium-dependent uptake. Based on the time-dependent sodium-dependent uptake results shown in Figure 4, we used 20 s for PFOA (Figure 4A), 30 s for PFNA (Figure 4B), and 1 min for PFDA (Figure 4C) to perform the concentration-dependent uptake kinetics.
Figure 4. Time dependency of NTCP-mediated PFOA, PFNA, and PFDA uptake. Uptake of (A) perfluorooctanoic acid (PFOA), (B) perfluorononanoic acid (PFNA), or (C) perfluorodecanoic acid (PFDA) was measured in NTCP-expressing HEK293 cells in sodium-containing (NaCl; solid lines) or sodium-free (ChCl; dotted lines) buffer at the indicated times at 37 °C and corrected for protein. The net sodium-dependent uptake (net; dashed lines) is also shown. The results are presented as means ± SD of two combined independent experiments performed in triplicates.
For the concentration-dependent uptake of […], we were limited by solubility and could only determine uptake up to a concentration of 1 mM. […] Therefore, no kinetic constants could be calculated for PFDA.
Figure 5. Kinetics of NTCP-mediated PFOA and PFNA uptake. Uptake of increasing concentrations of (A) perfluorooctanoic acid (PFOA) or (B) perfluorononanoic acid (PFNA) was measured at 37 °C for 20 (PFOA) or 30 s (PFNA) in NTCP-expressing HEK293 cells in sodium-containing or sodium-free buffer and corrected for protein. Net uptake was calculated by subtracting uptake in the sodium-free medium from uptake in the sodium-containing medium. Values are mean ± SD of three independent experiments parformed in triplicates. Curves were fit using the Michaelis–Menten equation in GraphPad Prism V9.

In series [4] the target is T1, human Na+/taurocholate cotransporting polypeptide (NTCP). Nature of the series: Inhibition of NTCP-mediated [3H]-taurocholate uptake in NTCP-expressing HEK293 cells. It is filed as cell-based. Conditions: for IC50 / inhibition of NTCP-mediated taurocholate uptake: 1 μM [3H]-taurocholate, 1 min, 37 °C; for IC50: sodium-containing buffer, 3 independent experiments; for inhibition of NTCP-mediated taurocholate uptake / statistically significant inhibition of taurocholate uptake: 10 μM PFCA; for inhibition of NTCP-mediated taurocholate uptake: NTCP-HEK293; for statistically significant inhibition of taurocholate uptake: 1 μM taurocholate, p < 0.05 vs control. The method, then: as §1
To investigate whether PFCAs would interact with the human Na^+/taurocholate cotransporting polypeptide (NTCP), we determined to what extent perfluorinated carboxylic acids with chain lengths from 3 to 18 carbon atoms (C3 to C18) would inhibit NTCP-mediated taurocholate uptake. For these experiments, we measured the uptake of 1 μM taurocholate in the presence and absence of 10 or 100 μM of each of the PFCAs.
Figure 1. […] Uptake was measured in sodium-containing (NaCl) or sodium-free (ChCl) buffer for 1 min at 37 °C and corrected for protein. Uptake then was normalized to control (NaCl) and individual values of 1 or 2 experiments performed in triplicates are presented. Bars represent the mean ± SD, asterisks indicate significant differences to the control (NaCl) at p < 0.05.
For these experiments, NTCP-mediated uptake of 1 μM taurocholate was measured in the absence and presence of increasing concentrations of perfluorinated compounds. For PFOA and PFNA, the concentrations ranged from 0.1 to 1000 μM, while the concentrations for PFDA were between 0.1 and 100 μM, due to solubility limitations.
Figure 2. […] Uptake of 1 μM [^3H]-taurocholate was measured into NTCP-expressing HEK293 cells in the absence or presence of increasing concentrations of (A) perfluorooctanoic acid (PFOA), (B) perfluorononanoic acid (PFNA), or (C) perfluorodecanoic acid (PFDA). Uptake was measured for 1 min at 37 °C in a sodium-containing buffer and corrected for protein. After conversion of the data to percent of control, IC50 values were calculated using GraphPad Prism V9 using the “One site-Fit logIC50” equation from 3 independent experiments performed in triplicates. The 95% confidence intervals are given in parentheses.

A further series deals with NTCP. Further details: method as in PMID 26001962. Conditions: perfluoroalkyl sulfonates, previously obtained; cited from earlier work.
Details of series [5]: method as in PMID 33201517. Conditions: laboratory mice and non-human primates; cited from earlier work.
[6] abbreviates: competitive inhibition fit, taurocholate uptake 15 s, 37 °C, 0, 10 and 100 μM PFCA, table: 95% CI in parentheses, read-out: Ki.
Where [7] appears, read: in presence of 10 μM PFCA, 95% CI in parentheses.
Where [8] appears, read: in presence of 100 μM PFCA, 95% CI in parentheses.

Several values for one entry are separate records, joined by “and”; a condition that tells them apart may be missing. Equal entries are not always repeated. Where two headings read alike, the source gives them in different places.

In the case of `O=C(O)C(F)(F)C(F)(F)C(F)(F)F` [PFBA, perfluorobutanoic acid], the values for the serum elimination half-life entry in series [1] and in series [2] were “a few days” and “a few hours”, respectively.

The term Ki denotes a dissociation constant, usually derived from enzyme kinetics or from competition with a known ligand. One may read the IC50 as the point on the concentration scale where inhibition reaches its midpoint. Low readings indicate inhibition by little substance, high ones a need for much substance. With `O=C(O)C(F)(F)C(F)(F)C(F)(F)C(F)(F)C(F)(F)C(F)(F)C(F)(F)C(F)(F)C(F)(F)F` [PFDA, Perfluorodecanoic acid], the Ki in series [3] (setting [6]) worked out at 8.3 µM. Moreover, the “Vmax of taurocholate uptake” value in series [3] (setting [7]) was 3.2 (3.0–3.4) nmol/mg·min; in series [3] (setting [8]), 2.5 (2.2–3.0) nmol/mg·min. The “type of inhibition of NTCP-mediated taurocholate uptake” value in series [3] was “competitive inhibitors”. Further, the “saturation of sodium-dependent uptake” value on human NTCP (concentration range tested up to 300 mM (so in the source), 1 min) was “did not reach saturation”. On human NTCP, the “transport by NTCP (substrate, words)” value is reported as “can transport”. The compound further displayed an IC50 in series [4] of 9.5 µM. The “inhibition of NTCP-mediated taurocholate uptake” value in series [4] is reported as 60–70%.

The term Km denotes the concentration of substrate that gives half-maximal velocity. In the case of `O=C(O)C(F)(F)C(F)(F)C(F)(F)C(F)(F)C(F)(F)C(F)(F)C(F)(F)C(F)(F)F` [PFNA, perfluorononanoic acid], the Ki in series [3] (setting [6]) is 12.3 µM and 12 µM. The “Vmax of taurocholate uptake” value in series [3] (setting [7]) is 3.5 (3.2–3.7) nmol/mg·min. The “Vmax of taurocholate uptake” value in series [3] (setting [8]) was 3.1 (2.5–4.1) nmol/mg·min. In addition, the “type of inhibition of NTCP-mediated taurocholate uptake” value in series [3] is given as “competitive inhibitors”. At human NTCP (net sodium-dependent uptake, 37 °C, 20 s (PFOA) or 30 s (PFNA)), the “Vmax of sodium-dependent NTCP-mediated PFCA uptake” value is on record as 670 ± 391 nmol/mg/min. Further, at human NTCP (net sodium-dependent uptake, 37 °C, 20 s (PFOA) or 30 s (PFNA), PFNA value a rough estimate, saturation not reached, read-out: Km of sodium-dependent NTCP-mediated PFCA uptake), the Km was 5300 ± 3500 µM. The “transport by NTCP (substrate, words)” value at human NTCP is “can transport”. In series [4], the half-maximal inhibitory concentration (IC50) worked out at 7.5 µM and the “inhibition of NTCP-mediated taurocholate uptake” value was 60–70%.

Take `C[C@H](CCC(=O)NCCS(=O)(=O)O)[C@H]1CC[C@H]2[C@@H]3[C@H](O)C[C@@H]4C[C@H](O)CC[C@]4(C)[C@H]3C[C@H](O)[C@]12C` [taurocholate, reference compound]: in series [3] (concentration of PFCA 0 (control of each PFCA series), 95% CI in parentheses), the “Vmax of taurocholate uptake” value was 2.9 (2.7–3.2) nmol/mg·min and 3.2 (2.9–3.4) nmol/mg·min and 3.5 (3.2–3.8) nmol/mg·min. Moreover, the Km in series [3] (concentration of PFCA 0 (control of each PFCA series), 95% CI in parentheses, read-out: Km of taurocholate uptake) is 12 µM and 16 µM.

For the compound `O=S(=O)(O)C(F)(F)C(F)(F)C(F)(F)C(F)(F)F` [PFBS, perfluorobutane sulfonate], the Km in the series on NTCP is 39.6 µM.

Take `O=S(=O)(O)C(F)(F)C(F)(F)C(F)(F)C(F)(F)C(F)(F)C(F)(F)F` [PFHxS, perfluorohexane sulfonate]: the Km with NTCP is 112 µM.

Regarding `O=C(O)C(F)(F)C(F)(F)C(F)(F)C(F)(F)C(F)(F)C(F)(F)C(F)(F)F` [PFOA, perfluorooctanoic acid], the serum elimination half-life entry in series [5] is reported as “days to weeks”. Moreover, in series [3], the affinity corresponds to a Ki of 17 µM and the “type of inhibition of NTCP-mediated taurocholate uptake” value is reported as “competitive inhibitors”. In addition, the “Vmax of taurocholate uptake” value in series [3] (setting [7]) is 3.0 (2.8–3.2) nmol/mg·min. Further, the “Vmax of taurocholate uptake” value in series [3] (setting [8]) was 2.8 (2.6–3.1) nmol/mg·min. The serum elimination half-life entry in series [1] is “several years”. For the same compound, on human NTCP (Ki (taurocholate uptake inhibition) versus Km (own transport)), the “Ki value lower than Km value” is “about 100 fold”. Besides, the “transport by NTCP (substrate, words)” value at human NTCP is given as “can transport”. Moreover, in series [4], the IC50 worked out at 28 µM and the “statistically significant inhibition of taurocholate uptake” value was “statistically significant inhibitors at 10 μM, but to a lesser extent”.

For `O=C(O)C(F)(F)C(F)(F)C(F)(F)C(F)(F)C(F)(F)C(F)(F)C(F)(F)C(F)(F)C(F)(F)C(F)(F)F` [perfluoroundecanoic acid], the “statistically significant inhibition of taurocholate uptake” value in series [4] is “statistically significant inhibitors at 10 μM, but to a lesser extent”.

`O=S(=O)(O)C(F)(F)C(F)(F)C(F)(F)C(F)(F)C(F)(F)C(F)(F)C(F)(F)C(F)(F)F` [PFOS, perfluorooctane sulfonate]: in the series with NTCP, the Km is 130 µM.

Source of the values: article PMC8562773, “Perfluoroalkyl Carboxylic Acids Interact with the Human Bile Acid Transporter NTCP” (Livers, 2021).
